Consider four compounds from patent US9302998B2, “Aryl triazole compounds with antitumoural activity” (SIGMA-TAU RESEARCH SWITZERLAND S.A., priority 2010, dated 2016).

One data set deals with U87MG glioblastoma. As to the kind of experiment: Sulphorodamine B test at single concentration, U87MG. The format is cell-based. The following applies: Homo sapiens, U-87 MG; 500 nM, 72 h. The essentials: (§1)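 Cells in EMEM with 10% FBS, seeded at ~10% confluence, attached 24 h, then exposed to 500 nM compound for 72 h at 37 °C, octuplicate. TCA fixation, sulphorodamine B staining, OD at 540 nm; killing expressed as % decrease in dye binding versus control cultures.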

In a further data set the test system is A431 epidermoid. As to the kind of experiment: Sulphorodamine B test at single concentration, A431. The data set is classed as cell-based. Conditions: Homo sapiens, A-431; 500 nM, 72 h. The method, boiled down:
(§2)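 Cells in RPMI 1640 with 10% FBS, seeded at about 10% confluence and allowed 24 h recovery, then treated with a single 500 nM concentration for 72 h at 37° C., in octuplicate. TCA-fixed cells were stained with sulphorodamine B, OD read at 540 nm; cell kill was derived as % decrease in staining versus controls. NB4 suspension cells were centrifuged after incubation.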

A further data set concerns A498 renal. As to the kind of experiment: Sulphorodamine B test at single concentration, A498. The data set is classed as cell-based. Conditions: Homo sapiens, 500 nM, 72 h. The method, boiled down: as §2
A further data set deals with A2780 ovarian. The data set is described as follows: Sulphorodamine B test at single concentration, A2780. The data set is classed as cell-based. The following applies: Homo sapiens, 500 nM, 72 h. The method, boiled down:
as §2

Another data set relates to HCT116 colon. The data set is described as follows: Sulphorodamine B test at single concentration, HCT116. The data set is classed as cell-based. The following applies: Homo sapiens, HCT-116; 500 nM, 72 h. The essentials:
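HCT116 colon cells in McCoy's medium with 10% FBS were seeded at ~10% confluence, left 24 h, then exposed to a single 500 nM inhibitor concentration for 72 h at 37°C, in octuplicate. TCA-fixed cells stained with sulphorhodamine B, OD at 540 nm; percent decrease versus control cultures.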

In a further data set the test system is MiaPaCa2 pancreas. As to the kind of experiment: Sulphorodamine B test at single concentration, MiaPaCa2. Conditions: Homo sapiens, MIA PaCa-2; 500 nM, 72 h. The format is cell-based. The method, boiled down:
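MiaPaCa2 cells in DMEM with 10% FBS were attached for 24 h, then exposed to a single 500 nM inhibitor concentration for 72 h at 37° C, in octuplicate. Following TCA fixation, sulphorodamine B staining was read as OD at 540 nm; cell kill was the percent decrease in dye binding versus control cultures.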

The test system of data set [1] is NCI-H460 non-small cell lung carcinoma. As to the kind of experiment: Cytotoxicity assay, sulphorodamine B test, NCI-H460. The data set is classed as cell-based. The following applies: for IC50: Homo sapiens, NCI-H460, 72 h, sulphorodamine B. The essentials: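 NCI-H460 cells grown in RPMI 1640 with 10% FBS, seeded at ~10% confluence and left 24 h before graded compound concentrations were added for 72 h at 37 °C. TCA-fixed cells stained with 0.4% sulphorodamine B; OD 540 nm vs control cultures gave IC50 for 50% inhibition of survival.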

The test system of data set [2] is NB4 promyelocytic leukemia. The data set is described as follows: Sulphorodamine B test at single concentration, NB4. Conditions: 500 nM, 72 h, suspension cells. The data set is classed as cell-based. The method, boiled down:
as §2

Data set [3] deals with MDA-MB436 triple-negative breast. The data set is described as follows: Sulphorodamine B test at single concentration, MDA-MB436. The data set is classed as cell-based. The following applies: Homo sapiens, MDA-MB-436; 500 nM, 72 h. The method, boiled down: as §2
The next data set deals with T1, Hsp90 (Homo sapiens, UniProt P07900).
T1 construct: purchased Stressgen SPP-776
As to the kind of experiment: Fluorescence Polarization (FP) binding, GM-BODIPY displacement from Hsp90. Conditions: GM-BODIPY tracer, 4° C. for 4 hours. The method, boiled down: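 Hsp90 (125 nM) was mixed with 100 nM GM-BODIPY tracer and serially diluted compounds in HEPES-K buffer (pH 7.3, KCl, MgCl2, Na2MoO4, 0.01% NP40, fresh bovine gamma globulin and 2 mM DTT). Plates were shaken 4 h at 4 °C before FP (mP) reading. IC50 is the concentration displacing 50% of tracer, from nonlinear least-squares fits of triplicate means.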
A general note: Polarisation of emitted light reports the rotation of a fluorescent probe.

The test system of the next data set is MeWo melanoma. The data set is described as follows: Sulphorodamine B test at single concentration, MeWo. The format is cell-based. The following applies: Homo sapiens, 500 nM, 72 h. The essentials:
as §1

Another data set deals with HeLa cervix uteri. The data set is described as follows: Sulphorodamine B test at single concentration, HeLa. The data set is classed as cell-based. The following applies: Homo sapiens, 500 nM, 72 h. The method, boiled down: as §2

For orientation: inhibition means the relative decrease from the control value, in per cent. What is called IC50 is the point on the concentration scale where inhibition reaches its midpoint. Read a high IC50 as lower potency. For `CC(C)c1cc(-n2nnc(C(=O)NC3CCCC3)c2-c2ccc(CN3CCOCC3)cc2)c(O)cc1O` [Example 28, 1-(2,4-dihydroxy-5-isopropyl-phenyl)-5-(4-morpholin-4-ylmethyl-phenyl)-1H-[1,2,3]triazole-4-carboxylic acid cyclopentylamide], the inhibition at 0.5 µM with U87MG glioblastoma, in the data set with A431 epidermoid, in the data set on A498 renal, in the data set with A2780 ovarian, in the data set with HCT116 colon and with MiaPaCa2 pancreas was no less than 50% each time. The inhibition at 0.5 µM (in [2]; in [3]; in the data set on MeWo melanoma; in the data set on HeLa cervix uteri) was no less than 50% each time. Also, the IC50 (in data set [1]; at Hsp90) was less than 50 nM each time.

Consider `CC(C)c1cc(-n2nnc(C(=O)NC3CCCCC3)c2-c2ccc(CN3CCOCC3)cc2)c(O)cc1O` [Example 29, 1-(2,4-dihydroxy-5-isopropyl-phenyl)-5-(4-morpholin-4-ylmethyl-phenyl)-1H-[1,2,3]triazole-4-carboxylic acid cyclohexylamide], for which the inhibition at 0.5 µM with U87MG glioblastoma, in the data set on A431 epidermoid, with A498 renal, in the data set on A2780 ovarian, in the data set with HCT116 colon and with MiaPaCa2 pancreas was no less than 50% in each case. The inhibition at 0.5 µM (in [2]; in data set [3]; in the data set with MeWo melanoma; with HeLa cervix uteri) was no less than 50% in each case. Besides, the results for the IC50 (in data set [1]; at Hsp90) were less than 50 nM and 50 to 100 nM, respectively.

As to `CCOC(=O)c1nnn(-c2cc(Cl)c(O)cc2O)c1-c1ccc(F)cc1` [Example 32, 1-(5-chloro-2,4-dihydroxy-phenyl)-5-(4-fluoro-phenyl)-1H-[1,2,3]triazole-4-carboxylic acid ethyl ester, reference compound], the inhibition at 0.5 µM in the data set on U87MG glioblastoma, in the data set with A431 epidermoid, in the data set on A498 renal, in the data set on A2780 ovarian, in the data set with HCT116 colon and in the data set with MiaPaCa2 pancreas was less than 30% in each case. Further, the inhibition at 0.5 µM was 30 to 50% in [2], less than 30% in data set [3], less than 30% in the data set with MeWo melanoma and less than 30% in the data set on HeLa cervix uteri. The “cytotoxic activity against NCI-H460 NSCLC (in words)” value in data set [1] was “totally deprived of any interesting biological activity”. Besides, the IC50 in data set [1] is greater than 1000 nM; on Hsp90, greater than 500 nM.

For the compound `Oc1cc(O)c(-n2nncc2-c2ccc(F)cc2)cc1Cl` [Example 33, 4-chloro-6-[5-(4-fluoro-phenyl)-[1,2,3]triazol-1-yl]-benzene-1,3-diol, reference compound], the inhibition at 0.5 µM in the data set with U87MG glioblastoma, with A431 epidermoid, with A498 renal, in the data set on A2780 ovarian, with HCT116 colon and with MiaPaCa2 pancreas was less than 30% throughout. Further, the inhibition at 0.5 µM (in data set [2]; in data set [3]; in the data set on MeWo melanoma; in the data set on HeLa cervix uteri) was less than 30% in each case. The “cytotoxic activity against NCI-H460 NSCLC (in words)” value in data set [1] is recorded as “totally deprived of any interesting biological activity”. The IC50 was greater than 1000 nM in data set [1] and greater than 500 nM at Hsp90.
